Test results reported in the NIST ThermoML archive (doi:10.1021/je700671t).
± gives the expanded uncertainty stated by the source.

How the values were obtained:
[1] = 101 kPa, Liquid; for viscosity: Capillary tube (Ostwald / Ubbelohde) method
[2] = xn = mol fraction of the nth substance listed; details: 101 kPa, Liquid, x2 = 0; for viscosity: Capillary tube (Ostwald / Ubbelohde) method

CN(C)C=O [dimethylformamide]
[1]
Details | mass density [kg/m3] | viscosity [mPa·s]
283.15 K | 958.96 ± 0.25 | –
288.15 K | 954.17 ± 0.26 | –
293.15 K | 949.39 ± 0.27 | 0.864 ± 0.01
298.15 K | 944.6 ± 0.27 | –
303.15 K | 939.83 ± 0.28 | 0.766 ± 0.009
308.15 K | 935.05 ± 0.29 | –
313.15 K | 930.27 ± 0.29 | 0.684 ± 0.009
318.15 K | 925.49 ± 0.3 | –
323.15 K | 920.71 ± 0.31 | 0.617 ± 0.009
328.15 K | 915.92 ± 0.32 | –
333.15 K | 911.13 ± 0.32 | 0.559 ± 0.009
338.15 K | 906.32 ± 0.33 | –
343.15 K | 901.51 ± 0.34 | 0.51 ± 0.009
348.15 K | 896.69 ± 0.34 | –
353.15 K | 891.86 ± 0.35 | 0.47 ± 0.009

O [water] + CN(C)C=O
[2]
Details | mass density [kg/m3] | viscosity [mPa·s]
283.15 K | 999.7 ± 0.13 | –
293.15 K | – | 1.026 ± 0.01
303.15 K | – | 0.817 ± 0.009
313.15 K | – | 0.67 ± 0.009
323.15 K | 988.03 ± 0.14 | 0.561 ± 0.009
328.15 K | 985.69 ± 0.15 | –
333.15 K | 983.19 ± 0.15 | 0.48 ± 0.009
338.15 K | 980.55 ± 0.16 | –
343.15 K | 977.76 ± 0.16 | 0.419 ± 0.008
348.15 K | 974.84 ± 0.16 | –
353.15 K | 971.79 ± 0.17 | 0.371 ± 0.008
